Measured values published in patent US5258406A, “Sulfonimidamides” (priority 1992, dated 1993).
Like-named read-outs stand apart in the source and are kept apart here.

Legend:
Type in all cases: in vivo
M5 Ovarian Carcinoma = details: IP, DX 10, from day 5 after implant
Method: (§1) The compounds were tested in C3H mice bearing a 6C3HED lymphosarcoma, also known as the Gardner lymphosarcoma (GLS), and in a variety of human tumor xenografts in CD1 nu/nu mice, including CX-1, LX-1, HXGC3, and VRC5. The 6C3HED lymphosarcoma was obtained from the Division of Cancer Treatment, National […] Institute, Tumor Bank, maintained at E. G. and G. Mason Research (Worcester, Mass.). The CX-1 human colon carcinoma and the LX-1 human lung carcinoma xenografts were obtained from the National Cancer Institute. The HXGC3 and VRC5 human colon xenografts were obtained from Dr. P. J. Houghton, St. Jude Children's Hospital in Memphis (see Br. J. Cancer, 37, 213 (1978)). First passage tumor was stored in liquid nitrogen using standard techniques. The transplanted tumor was reestablished from the Tumor Bank every six months or as needed. The tumor was maintained by serial passage twice weekly in C3H mice.
(§2) In the procedure the tumor was removed from passage animals and minced into 1- to 3-mm square fragments using sterile techniques. Tumor pieces were checked for sterility using both Antibiotic Medium 1 and Brain Heart Infusion (Difco, Detroit, Mich.). Recipient mice were shaved and tumor pieces were implanted subcutaneously in the auxiliary region by trocar. Drug therapy on the appropriate schedule was initiated on the day after tumor implant for 6C3HED and after a seven (7) day delay for xenografts (or other delay as noted in Table 2). The compound being tested was mixed with 2.5% Emulphor EL620 from GAF Corporation (1:40 dilution in saline). Food and water were provided ad libitium. The drug was administered orally in 0.5 ml of 2.5% Emulphor (unless otherwise indicated). The tumor was measured the day after treatment ended with two dimensional measurements (width and length) of the tumor taken using automated digital calipers interfaced to a microcomputer. Approximate weight for the tumor was calculated using the following formula [Worzalla, J. F., et al., Invest. New Drugs, 8, 241 (1990], (tumor weight in mg)=(width in mm)^2 ×(length in mm)/2.
(§3) At least one control group of an equal number of mice was treated with the same volume of 2.5% Emulphor only. The percent inhibition was determined by subtracting the ratio of the mean tumor size of the test group relative to the control group from one and multiplying the result times 100.
(§4) The results of several experiments in mice bearing a 6C3HED lymphosarcoma (or other tumor where indicated) when the indicated compounds were administered are provided in Table 2. In Table 2, column 1 gives the Example number of the compound used, column 2 lists the dose level in mg/kg, column 3 provides the percent inhibition of tumor growth, column 4 gives the number of mice which died relative to the total number of animals in the group, column 5 gives the method of administration of the compound, and column 6 gives the dosage schedule. The protocol used with other tumors was the same as with the 6C3HED lymphosarcoma.
(n) Tumor type M5 Ovarian Carcinoma

ELC2 = assay: Inhibition of ELC2 tumor growth in mice; details: IP, DX 10
Method: as §1, §2, §3, §4

[1] = test system: X5563 Plasma Cell Myeloma; details: IP, DX 10
Method: as §1, §2, §3, §4
(p) Tumor type X5563 Plasma Cell Myeloma

colon carcinoma26 = details: IP, DX 10
Method: as §1, §2, §3, §4
(i) Tumor type colon carcinoma26

6C3HED lymphosarcoma = assay: animal or person
C3H mammary adenocarcin = details: IP, DX 10
Method: as §1, §2, §3, §4
(g) Tumor type C3H mammary adenocarcin

Lewis Lung Carcinoma = assay: Inhibition of Lewis Lung Carcinoma growth in mice; details: IP, DX 10
Method: as §1, §2, §3, §4
(m) Tumor type Lewis Lung Carcinoma

Cc1ccc(S(=N)(=O)NC(=O)Nc2ccc(Cl)cc2)cc1C (centres unmarked) [Example 36, N-[[(4-chlorophenyl)amino]carbonyl]-3,4-dimethylbenzenesulfonimidamide]
% inhibition of tumor growth (M5 Ovarian Carcinoma; 3.75 mg/kg): 10%
Tox/Tot (mice which died / total) (M5 Ovarian Carcinoma; 3.75 mg/kg): 0/10
% inhibition of tumor growth (M5 Ovarian Carcinoma; 7.5 mg/kg): 19%
Tox/Tot (mice which died / total) (M5 Ovarian Carcinoma; 7.5 mg/kg): 0/10
% inhibition of tumor growth (M5 Ovarian Carcinoma; 15 mg/kg): 47%
Tox/Tot (mice which died / total) (M5 Ovarian Carcinoma; 15 mg/kg): 0/10
% inhibition of tumor growth (M5 Ovarian Carcinoma; 30 mg/kg): 38%
Tox/Tot (mice which died / total) (M5 Ovarian Carcinoma; 30 mg/kg): 1/10
% inhibition of tumor growth (ELC2; 7.5 mg/kg): 0%
Tox/Tot (mice which died / total) (ELC2; 7.5 mg/kg): 0/10
% inhibition of tumor growth (ELC2; 15 mg/kg): 3%
Tox/Tot (mice which died / total) (ELC2; 15 mg/kg): 0/10
% inhibition of tumor growth (ELC2; 30 mg/kg): TOX
Tox/Tot (mice which died / total) (ELC2; 30 mg/kg): 10/10
% inhibition of tumor growth ([1]; 3.75 mg/kg): 35%
Tox/Tot (mice which died / total) ([1]; 3.75 mg/kg): 0/10
% inhibition of tumor growth ([1]; 7.5 mg/kg): 63%
Tox/Tot (mice which died / total) ([1]; 7.5 mg/kg): 1/10
% inhibition of tumor growth ([1]; 15 mg/kg): 88%
Tox/Tot (mice which died / total) ([1]; 15 mg/kg): 4/10
% inhibition of tumor growth ([1]; 30 mg/kg): 97%
Tox/Tot (mice which died / total) ([1]; 30 mg/kg): 3/10
% inhibition of tumor growth (colon carcinoma26; 3.75 mg/kg): 5%
Tox/Tot (mice which died / total) (colon carcinoma26; 3.75 mg/kg): 0/10
% inhibition of tumor growth (colon carcinoma26; 7.5 mg/kg): 14%
Tox/Tot (mice which died / total) (colon carcinoma26; 7.5 mg/kg): 0/10
% inhibition of tumor growth (colon carcinoma26; 15 mg/kg): 6%
Tox/Tot (mice which died / total) (colon carcinoma26; 15 mg/kg): 0/10
% inhibition of tumor growth (colon carcinoma26; 30 mg/kg): 26%
Tox/Tot (mice which died / total) (colon carcinoma26; 30 mg/kg): 0/10
Tox/Tot (mice which died / total) (6C3HED lymphosarcoma; IP, 0.25 mg/kg, BIDX 8): 0/10
Tox/Tot (mice which died / total) (6C3HED lymphosarcoma; IP, 0.5 mg/kg, BIDX 8): 0/10
Tox/Tot (mice which died / total) (6C3HED lymphosarcoma; IP, 1 mg/kg, BIDX 8): 0/10
Tox/Tot (mice which died / total) (6C3HED lymphosarcoma; IP, 2 mg/kg, BIDX 8): 0/10
Tox/Tot (mice which died / total) (6C3HED lymphosarcoma; IP, 3.125 mg/kg, DX 8): 0/10
Tox/Tot (mice which died / total) (6C3HED lymphosarcoma; IP, 4 mg/kg, BIDX 8): 0/10
Tox/Tot (mice which died / total) (6C3HED lymphosarcoma; IP, 6.25 mg/kg, DX 8): 0/10
Tox/Tot (mice which died / total) (6C3HED lymphosarcoma; IP, 12.5 mg/kg, DX 8): 1/10
Tox/Tot (mice which died / total) (6C3HED lymphosarcoma; IP, 12.5 mg/kg, Days 1, 3, 5, 7): 0/10
Tox/Tot (mice which died / total) (6C3HED lymphosarcoma; IP, 25 mg/kg, DX 8): 2/10
Tox/Tot (mice which died / total) (6C3HED lymphosarcoma; IP, 25 mg/kg, Days 1, 3, 5, 7): 0/10
Tox/Tot (mice which died / total) (6C3HED lymphosarcoma; IP, 50 mg/kg, DX 8): 6/10
Tox/Tot (mice which died / total) (6C3HED lymphosarcoma; IP, 50 mg/kg, Days 1, 3, 5, 7): 0/10
Tox/Tot (mice which died / total) (6C3HED lymphosarcoma; IP, 100 mg/kg, Days 1, 3, 5, 7): 3/10
inhibition in vivo at 0.25 mg/kg (6C3HED lymphosarcoma; Mus musculus, 6C3HED, ip, read-out: % inhibition of tumor growth, IP, 0.25 mg/kg, BIDX 8): 16%
inhibition in vivo at 0.5 mg/kg (6C3HED lymphosarcoma; Mus musculus, 6C3HED, ip, read-out: % inhibition of tumor growth, IP, 0.5 mg/kg, BIDX 8): 29%
inhibition in vivo at 1 mg/kg (6C3HED lymphosarcoma; Mus musculus, 6C3HED, ip, read-out: % inhibition of tumor growth, IP, 1 mg/kg, BIDX 8): 43%
inhibition in vivo at 2 mg/kg (6C3HED lymphosarcoma; Mus musculus, 6C3HED, ip, read-out: % inhibition of tumor growth, IP, 2 mg/kg, BIDX 8): 75%
inhibition in vivo at 3.125 mg/kg (6C3HED lymphosarcoma; Mus musculus, 6C3HED, ip, read-out: % inhibition of tumor growth, IP, 3.125 mg/kg, DX 8): 74%
inhibition in vivo at 4 mg/kg (6C3HED lymphosarcoma; Mus musculus, 6C3HED, ip, read-out: % inhibition of tumor growth, IP, 4 mg/kg, BIDX 8): 97%
inhibition in vivo at 6.25 mg/kg (6C3HED lymphosarcoma; Mus musculus, 6C3HED, ip, read-out: % inhibition of tumor growth, IP, 6.25 mg/kg, DX 8): 93%
inhibition in vivo at 12.5 mg/kg (6C3HED lymphosarcoma; Mus musculus, 6C3HED, ip, read-out: % inhibition of tumor growth, IP, 12.5 mg/kg, DX 8): 98%
inhibition in vivo at 12.5 mg/kg (6C3HED lymphosarcoma; Mus musculus, 6C3HED, ip, read-out: % inhibition of tumor growth, IP, 12.5 mg/kg, Days 1, 3, 5, 7): 88%
inhibition in vivo at 25 mg/kg (6C3HED lymphosarcoma; Mus musculus, 6C3HED, ip, read-out: % inhibition of tumor growth, IP, 25 mg/kg, DX 8): 100%
inhibition in vivo at 25 mg/kg (6C3HED lymphosarcoma; Mus musculus, 6C3HED, ip, read-out: % inhibition of tumor growth, IP, 25 mg/kg, Days 1, 3, 5, 7): 99%
inhibition in vivo at 50 mg/kg (6C3HED lymphosarcoma; Mus musculus, 6C3HED, ip, read-out: % inhibition of tumor growth, IP, 50 mg/kg, DX 8): 100%
inhibition in vivo at 50 mg/kg (6C3HED lymphosarcoma; Mus musculus, 6C3HED, ip, read-out: % inhibition of tumor growth, IP, 50 mg/kg, Days 1, 3, 5, 7): 99%
inhibition in vivo at 100 mg/kg (6C3HED lymphosarcoma; Mus musculus, 6C3HED, ip, read-out: % inhibition of tumor growth, IP, 100 mg/kg, Days 1, 3, 5, 7): 100%
inhibition in vivo at 6.25 mg/kg (6C3HED lymphosarcoma; Mus musculus, 6C3HED, po, read-out: % inhibition of tumor growth, oral, 6.25 mg/kg, BIDX 8): 100%
inhibition in vivo at 12.5 mg/kg (6C3HED lymphosarcoma; Mus musculus, 6C3HED, po, read-out: % inhibition of tumor growth, oral, 12.5 mg/kg, BIDX 8): 100%
inhibition in vivo at 25 mg/kg (6C3HED lymphosarcoma; Mus musculus, 6C3HED, po, read-out: % inhibition of tumor growth, oral, 25 mg/kg, BIDX 8): 100%
inhibition in vivo at 50 mg/kg (6C3HED lymphosarcoma; Mus musculus, 6C3HED, po, read-out: % inhibition of tumor growth, oral, 50 mg/kg, BIDX 8): 100%
inhibition in vivo at 150 mg/kg (6C3HED lymphosarcoma; Mus musculus, 6C3HED, po, read-out: % inhibition of tumor growth, oral, 150 mg/kg, BIDX 8): 99%
Tox/Tot (mice which died / total) (6C3HED lymphosarcoma; oral, 6.25 mg/kg, BIDX 8): 2/8
Tox/Tot (mice which died / total) (6C3HED lymphosarcoma; oral, 12.5 mg/kg, BIDX 8): 5/8
Tox/Tot (mice which died / total) (6C3HED lymphosarcoma; oral, 25 mg/kg, BIDX 8): 2/8
Tox/Tot (mice which died / total) (6C3HED lymphosarcoma; oral, 50 mg/kg, BIDX 8): 7/8
% inhibition of tumor growth (6C3HED lymphosarcoma; oral, 100 mg/kg, BIDX 8): TOX
Tox/Tot (mice which died / total) (6C3HED lymphosarcoma; oral, 100 mg/kg, BIDX 8): 8/8
Tox/Tot (mice which died / total) (6C3HED lymphosarcoma; oral, 150 mg/kg, BIDX 8): 6/10
% inhibition of tumor growth (6C3HED lymphosarcoma; oral, 300 mg/kg, BIDX 8): TOX
Tox/Tot (mice which died / total) (6C3HED lymphosarcoma; oral, 300 mg/kg, BIDX 8): 10/10
% inhibition of tumor growth (C3H mammary adenocarcin; 3.75 mg/kg): 38%
Tox/Tot (mice which died / total) (C3H mammary adenocarcin; 3.75 mg/kg): 1/10
% inhibition of tumor growth (C3H mammary adenocarcin; 7.5 mg/kg): 69%
Tox/Tot (mice which died / total) (C3H mammary adenocarcin; 7.5 mg/kg): 0/10
% inhibition of tumor growth (C3H mammary adenocarcin; 15 mg/kg): 74%
Tox/Tot (mice which died / total) (C3H mammary adenocarcin; 15 mg/kg): 6/10
% inhibition of tumor growth (C3H mammary adenocarcin; 30 mg/kg): TOX
Tox/Tot (mice which died / total) (C3H mammary adenocarcin; 30 mg/kg): 10/10
% inhibition of tumor growth (Lewis Lung Carcinoma; 7.5 mg/kg): 6%
Tox/Tot (mice which died / total) (Lewis Lung Carcinoma; 7.5 mg/kg): 0/10
% inhibition of tumor growth (Lewis Lung Carcinoma; 15 mg/kg): 32%
Tox/Tot (mice which died / total) (Lewis Lung Carcinoma; 15 mg/kg): 0/10
% inhibition of tumor growth (Lewis Lung Carcinoma; 30 mg/kg): 34%
Tox/Tot (mice which died / total) (Lewis Lung Carcinoma; 30 mg/kg): 0/10
